Test results from US5527820A, “Antibiotics having immunosuppressive activity, delaminomycins and processes for the production of the same” (priority 1992, dated 1996).
≈ marks a conversion by molar mass, not a printed value. Where two headings read alike, the source gives them in different places.

Columns and labels:
[1] = test system: delayed-type hypersensitivity (DTH); test: Suppressive effect on delayed-type hypersensitivity (DTH) in mouse, oral; assay type: in vivo, mouse (CDF1); conditions: oral once a day, 0~4th day
Method: CDF1 mice were immunized by intravenously injecting sheep red blood cells (10^5 cells/mouse). On the 4th day after the immunization, sheep red blood cells (10^8 cells/mouse) were subcutaneously injected into the footpad of mice for the elicitation to cause a delayed-type hypersensitivity. Test compound was orally administered to the mice once a day from the 0 th day to the 4 th day after the immunization. On the 5th day after the elicitation, the thickness of the mouse footpad was measured to estimate the suppressive effect of the test compound on DTH. The suppressive effect of the test compound was evaluated in terms of the inhibition rate (%) as calculated according to the following equation:
Inhibition rate (%)=100-(T/C×100)
wherein T denotes the thickness of the footpad when the test compound was administered, but C denotes the thickness of the footpad when no test compounnd was administered.

[2] = test system: spleen cells (T cells activated by Concanavalin A); test: Inhibitory activity against blastogenesis and proliferation of spleen cells caused by mitogen (Con A); assay type: cell-based, mouse (CDF1); conditions: for IC50: read-out: IC50 (inhibition of blastogenesis and proliferation of spleen lymphocyte caused by Con A); for inhibition at 0.39 µg/mL: 0.39 μg/ml test compound; for inhibition at 6.25 µg/mL: 6.25 μg/ml test compound; for inhibition at 25 µg/mL: 25 μg/ml test compound; for inhibition at 100 µg/mL: 100 μg/ml test compound; for activity inhibitory to the reaction of proliferation of mouse spleen cells activated with Concanavalin A: in vitro, result in words; for inhibition at 1.56 µg/mL: 1.56 μg/ml test compound
[3] = test system: nylon wool-passed cells of spleen cells (responder cell; T cells); test: Inhibitory activity to the mixed lymphocyte culture reaction; assay type: cell-based, rat (Fischer F344 responder; WKY stimulator); conditions: for inhibition at 1.56 µg/mL / inhibition at 0.1 µg/mL / inhibition at 0.39 µg/mL / inhibition at 6.25 µg/mL / inhibition at 25 µg/mL / inhibition at 100 µg/mL / IC50: Rattus norvegicus, T-cell; for inhibition at 1.56 µg/mL / inhibition at 0.1 µg/mL / inhibition at 0.39 µg/mL / inhibition at 6.25 µg/mL / inhibition at 25 µg/mL / inhibition at 100 µg/mL: read-out: Inhibition rate; for inhibition at 0.1 µg/mL: 0.10 μg/ml test compound; for inhibition at 0.39 µg/mL: 0.39 μg/ml test compound; for inhibition at 6.25 µg/mL: 6.25 μg/ml test compound; for inhibition at 25 µg/mL: 25 μg/ml test compound; for inhibition at 100 µg/mL: 100 μg/ml test compound; for IC50: 120 hours, 3H-thymidine incorporation, read-out: IC50 (inhibition of mixed lymphocyte culture reaction); for activity to inhibit the proliferation of the T cells (responder cell) in mixed lymphocyte culture reaction: in vitro, result in words
Mouse leukemia L-1210 = test: Inhibitory activity on proliferation of cancer cells; assay type: cell-based; conditions: L1210
Mouse leukemia P388D1 = test: as above; assay type: cell-based
Mouse leukemia EL-4 = test: as above; assay type: cell-based; conditions: EL4
Mouse melanoma B-16 = test: as above; assay type: cell-based; conditions: B16
Human Lymphoma Jurkat = test: as above; assay type: cell-based
Candida tropicalis F-1 = test: MIC, agar plate dilution method; assay type: cell-based; conditions: F1, 27° C., 42 hours, nutrient agar containing glucose
[4] = test system: Candida pseudotropicalis F-2; test: MIC, agar plate dilution method; assay type: cell-based; conditions: Kluyveromyces marxianus, F2; 27° C., 42 hours, nutrient agar containing glucose
Candida albicans 3147 = test: MIC, agar plate dilution method; assay type: cell-based; conditions: 27° C., 42 hours, nutrient agar containing glucose
Candida Yu-1200 = test: MIC, agar plate dilution method; assay type: cell-based; conditions: YU1200, 27° C., 42 hours, nutrient agar containing glucose
Candida krusei F-5 = test: MIC, agar plate dilution method; assay type: cell-based; conditions: Pichia kudriavzevii, F5; 27° C., 42 hours, nutrient agar containing glucose
[5] = test system: Saccharomyces cerevisiae F-7; test: MIC, agar plate dilution method; assay type: cell-based; conditions: F7, 27° C., 42 hours, nutrient agar containing glucose
Cochliobolus miyabeanus = test: MIC, agar plate dilution method; assay type: cell-based; conditions: Bipolaris oryzae; 27° C., 42 hours, nutrient agar containing glucose
Method: (§1) Delaminomycins A, B, C, A2, B2 and C2 according to this invention further have an antibacterial activity against a variety of bacteria. The minimum growth inhibitory concentrations (MIC) (μg/ml) of the novel antibiotics of this invention on various bacteria and fungi as measured by the agar plate dilution method are shown in Table 5a, Table 5b, Table 5c and Table 5d below.
(§2) Evaluated after culturing at 27° C. for 42 hours in nutrient agar
(§3) medium containing glucose.

Xanthomonas citri = test: MIC, agar plate dilution method; assay type: cell-based; conditions: 27° C., 42 hours, nutrient agar containing glucose
Method: as §1, §2, §3

Piricularia oryzae = test: microbe, parasite or virus in culture; assay type: cell-based; conditions: 42 h
Pellicularia sasakii = test: MIC, agar plate dilution method; assay type: cell-based; conditions: 27° C., 42 hours, nutrient agar containing glucose
Aspergillus niger F-16 = test: MIC, agar plate dilution method; assay type: cell-based; conditions: F16, 27° C., 42 hours, nutrient agar containing glucose
[6] = test system: Trichophyton asteroides 429; test: MIC, agar plate dilution method; assay type: cell-based; conditions: 27° C., 42 hours, nutrient agar containing glucose
[7] = test system: Trichophyton mentagrophytes F-15 (833); test: MIC, agar plate dilution method; assay type: cell-based; conditions: 27° C., 42 hours, nutrient agar containing glucose
Solubility = conditions: result in words; for Solubility: various solvents
[8] = Absorption into the digestive tracts on oral administration; conditions: result in words
Gram-positive bacteria = test: Antibacterial activity to Gram-positive bacteria; assay type: cell-based; conditions: result in words
From the text: as §1

[9] = Mus musculus, T-cell, read-out: Inhibition rate

SMILES	Inhibition rate (DTH footpad thickness) ([1]; 2.0 mg/mouse) [%]	IC50 ([2]; Mus musculus, T-cell) [µg/mL]	inhibition at 0.39 µg/mL [2, 9] [%]	inhibition at 6.25 µg/mL [2, 9] [%]	inhibition at 25 µg/mL [2, 9] [%]	inhibition at 100 µg/mL [2, 9] [%]	activity inhibitory to the reaction of proliferation of mouse spleen cells activated with Concanavalin A [2]	inhibition at 0.1 µg/mL [3] [%]	inhibition at 0.39 µg/mL [3] [%]	inhibition at 6.25 µg/mL [3] [%]	inhibition at 25 µg/mL [3] [%]	inhibition at 100 µg/mL [3] [%]	IC50 [3] [µg/mL]	activity to inhibit the proliferation of the T cells (responder cell) in mixed lymphocyte culture reaction [3]	IC50 (Mouse leukemia L-1210) [µg/mL]	IC50 (Mouse leukemia P388D1) [µg/mL]	IC50 (Mouse leukemia EL-4) [µg/mL]	Solubility (Solubility)	Solubility in water (Solubility)	absorption into the digestive tracts / oral absorption [8]	also measured
CCC(OS(=O)(=O)O)C(C)/C=C/C=C/C1CC2C=CC3CC(C)CC(C)C3C2(C)C(=O)C12C(=O)NC(O)C2=O (stereo not drawn)	56.3																				Inhibition rate (DTH footpad thickness) ([1]; 0.5 mg/mouse): -0.7%; Inhibition rate (DTH footpad thickness) ([1]; 8.0 mg/mouse): 85.2%
CCC(OS(=O)(=O)O)C(C)/C=C/C=C/C1CC2C=CC3CC(C)CC(C)C3C2(C)C(=O)C12C(=O)NC(OC)C2=O (stereo not drawn)	40.2																				
CCC(OS(=O)(=O)O)C(C)/C=C/C=C/C1CC2C=CC3CC(C)CC(C)C3C2(C)C(=O)C12C(=O)CNC2=O (stereo not drawn)	35.4																				
CCC(O)C(C)/C=C/C=C/C(O)CC1C=CC2CC(C)CC(C)C2C1(C)C(=O)C1C(=O)NC(OC)C1=O (stereo not drawn) [Delaminomycin B]		4 (≈ 7.76 µM)	0	77	69	70	exhibit an activity inhibitory to the reaction of proliferation of mouse spleen cells	12.1	27.9	95.1	95	93.2	1.1 (≈ 2.13 µM)	have an activity to inhibit the reaction of proliferation of the T cells	30 (≈ 58.2 µM)	13.3 (≈ 25.8 µM)	11.1 (≈ 21.5 µM)	soluble in methanol but slightly soluble or insoluble in water, acetone, ethyl ether and n-hexane	barely soluble in water	hardly absorbed into the digestive tracts	inhibition at 1.56 µg/mL [3]: 58.4%; IC50 (Mouse melanoma B-16): > 100 µg/mL; IC50 (Human Lymphoma Jurkat): 8.2 µg/mL (≈ 15.9 µM); MIC (Candida tropicalis F-1): > 100 µg/mL; MIC [4]: > 100 µg/mL; MIC (Candida albicans 3147): > 100 µg/mL; MIC (Candida Yu-1200): > 100 µg/mL; MIC (Candida krusei F-5): > 100 µg/mL; MIC [5]: > 100 µg/mL; MIC (Cochliobolus miyabeanus): > 100 µg/mL; MIC (Xanthomonas citri): > 100 µg/mL; MIC (Piricularia oryzae): > 100 µg/mL; MIC (Pellicularia sasakii): > 50 µg/mL; MIC (Aspergillus niger F-16): > 100 µg/mL; MIC [6]: > 100 µg/mL; MIC [7]: > 100 µg/mL
CCC(O)C(C)/C=C/C=C/C1CC2C=CC3CC(C)CC(C)C3C2(C)C(=O)C12C(=O)CNC2=O (stereo not drawn) [Delaminomycin C2]	25.7	1.6 (≈ 3.42 µM)	0	84	85	93	exhibit an activity inhibitory to the reaction of proliferation of mouse spleen cells	-7	-6	-1	29	99	37.9 (≈ 81 µM)	have an activity to inhibit the reaction of proliferation of the T cells	3.6 (≈ 7.7 µM)			Soluble in methanol, ethyl acetate and chloroform but slightly soluble or insoluble in n-hexane and water	barely soluble in water	hardly absorbed into the digestive tracts	inhibition at 0.1 µg/mL ([2]; Mus musculus, T-cell, 0.1 μg/ml test compound, read-out: Inhibition rate): 0%; inhibition at 1.56 µg/mL [2, 9]: 49%; inhibition at 1.56 µg/mL ([3]; 1.56 μg/ml test compound): 1%; antibacterial activity to Gram-positive bacteria (Gram-positive bacteria): antibacterial activity to Gram-positive bacteria
CCC(O)C(C)/C=C/C=C/C(O)CC1C=CC2CC(C)CC(C)C2C1(C)C(=O)C1C(=O)CNC1=O (stereo not drawn) [Delaminomycin C]		1 (≈ 2.06 µM)	1	75	76	76	exhibit an activity inhibitory to the reaction of proliferation of mouse spleen cells	19.5	41.6	97.3	97.6	96.9	0.5 (≈ 1.03 µM)	have an activity to inhibit the reaction of proliferation of the T cells	42 (≈ 86.5 µM)	3.1 (≈ 6.38 µM)	1.9 (≈ 3.91 µM)	soluble in methanol but slightly soluble or insoluble in water, acetone, ethyl ether and n-hexane	barely soluble in water	hardly absorbed into the digestive tracts	inhibition at 1.56 µg/mL [2, 9]: 75%; inhibition at 1.56 µg/mL ([3]; 1.56 μg/ml test compound): 89%; IC50 (Mouse melanoma B-16): 7.4 µg/mL (≈ 15.2 µM); IC50 (Human Lymphoma Jurkat): 1.2 µg/mL (≈ 2.47 µM); MIC (Candida tropicalis F-1): > 100 µg/mL; MIC [4]: > 100 µg/mL; MIC (Candida albicans 3147): > 100 µg/mL; MIC (Candida Yu-1200): > 100 µg/mL; MIC (Candida krusei F-5): > 100 µg/mL; MIC [5]: > 100 µg/mL; MIC (Cochliobolus miyabeanus): > 100 µg/mL; MIC (Xanthomonas citri): > 100 µg/mL; MIC (Piricularia oryzae): > 100 µg/mL; MIC (Pellicularia sasakii): > 50 µg/mL; MIC (Aspergillus niger F-16): > 100 µg/mL; MIC [6]: > 100 µg/mL; MIC [7]: > 100 µg/mL; antibacterial activity to Gram-positive bacteria (Gram-positive bacteria): antibacterial activity to Gram-positive bacteria
